In PubChem BioAssay (NCI) one finds GI50 and TGI data, which are given here for seven compounds.

Values joined by “and” are separate entries in the source; they are usually repeats but may differ in a detail not shown here. Equal values may be shown once.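 Results reflect a 48-hour exposure of cells in 96-well plates to compound at five concentrations. Here, GI50 denotes the concentration required for 50% inhibition of growth. The concentration for full growth arrest is given as TGI.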

Among the test systems are HS 578T breast; IGROV1 ovarian; LOX IMVI melanoma; MALME-3M melanoma; NCI/ADR-RES ovarian; RXF 393 renal; SF-295 CNS; SF-539 CNS; U251 CNS; UACC-62 melanoma.
Common to all, as to experiment: NCI anticancer screen, dose series, 48 h

For the compound `O=P(CCCCP(=O)(c1ccccc1)c1ccccc1)(c1ccccc1)c1ccccc1.[Cl][Sn]([Cl])([c]1ccccc1)[c]1ccccc1`, the GI50 in the experiment with HS 578T breast is 4.1 µM; in the experiment on IGROV1 ovarian, 3.9 µM; in the experiment with LOX IMVI melanoma, 1.29 µM; in the experiment with MALME-3M melanoma it was 1.41 µM; in the experiment on NCI/ADR-RES ovarian it was 2.96 µM; with RXF 393 renal, 1.38 µM. Further, the GI50 is 6.36 µM in the experiment with SF-295 CNS, 1.43 µM in the experiment on SF-539 CNS, 2 µM in the experiment with U251 CNS and 1.59 µM in the experiment on UACC-62 melanoma. In addition, the TGI was above 50.6 µM in the experiment on HS 578T breast; 8.39 µM in the experiment with IGROV1 ovarian; 5.45 µM with LOX IMVI melanoma; 3.1 µM in the experiment with MALME-3M melanoma; 10.8 µM with NCI/ADR-RES ovarian; 3.13 µM in the experiment on RXF 393 renal. Further, the TGI with SF-295 CNS was 18.3 µM; in the experiment on SF-539 CNS, 3.64 µM; in the experiment on U251 CNS, 4.77 µM; with UACC-62 melanoma, 3.3 µM.

For `CC1(O)CC(c2nc(-c3ccc4ccc(-c5ccccc5)nc4c3)c3c(N)nccn23)C1` (stereo not given), the GI50 in the experiment with HS 578T breast is 13.8 µM and 4.28 µM; in the experiment with IGROV1 ovarian it was 19.1 µM and > 10 µM; in the experiment on LOX IMVI melanoma, 7.41 µM and 6.46 µM; in the experiment on MALME-3M melanoma it was 7.95 µM and > 10 µM; with NCI/ADR-RES ovarian it was 10.6 µM and > 10 µM; in the experiment with RXF 393 renal, 3.71 µM and 4.96 µM. The GI50 with SF-295 CNS was 12.5 µM and > 10 µM; in the experiment with SF-539 CNS it was 11.9 µM and > 10 µM; in the experiment with U251 CNS it was 13.4 µM and > 10 µM; with UACC-62 melanoma, 10.8 µM and > 10 µM. The TGI in the experiment with HS 578T breast is 51.9 µM and > 10 µM; in the experiment with IGROV1 ovarian it was above 100 µM; in the experiment with LOX IMVI melanoma, 45.4 µM and > 10 µM; in the experiment with MALME-3M melanoma, 38.2 µM and > 10 µM; with NCI/ADR-RES ovarian, 96.9 µM and > 10 µM; in the experiment on RXF 393 renal, 13.7 µM and > 10 µM. The TGI was 48.1 µM and > 10 µM in the experiment with SF-295 CNS; 28.8 µM and > 10 µM in the experiment with SF-539 CNS; 36.3 µM and > 10 µM in the experiment on U251 CNS; 32.2 µM and > 10 µM with UACC-62 melanoma.

As to `N#CC1=C(N)Oc2c(sc3c(Br)cccc23)C1c1ccc(Br)cc1` (stereo not given), the GI50 in the experiment with HS 578T breast was 2.44 µM; in the experiment with IGROV1 ovarian, 0.887 µM; in the experiment on LOX IMVI melanoma, 0.747 µM; in the experiment on MALME-3M melanoma, 1.39 µM; in the experiment with NCI/ADR-RES ovarian it was 0.416 µM; in the experiment on RXF 393 renal, 1.97 µM. Moreover, the GI50 in the experiment with SF-295 CNS was 0.38 µM; in the experiment on SF-539 CNS it was 0.793 µM; in the experiment on U251 CNS, 0.544 µM; with UACC-62 melanoma it was 0.636 µM. For the same compound, the TGI in the experiment with HS 578T breast was determined as 13.5 µM; in the experiment on IGROV1 ovarian, 12.9 µM; with LOX IMVI melanoma, 3.95 µM; in the experiment on MALME-3M melanoma, 20.7 µM; in the experiment on NCI/ADR-RES ovarian it was 5.14 µM; with RXF 393 renal, 6.18 µM. Also, the TGI worked out at 2.85 µM in the experiment with SF-295 CNS, 3.02 µM in the experiment on SF-539 CNS, 2.05 µM in the experiment with U251 CNS and 16.5 µM with UACC-62 melanoma.

`COc1cc(Cl)cc(-c2nn(-c3cccc(NC(=O)Nc4cc(C(F)(F)F)cc(C(F)(F)F)c4)c3)cc2-c2ccncc2)c1`: the GI50 in the experiment with HS 578T breast is 1.89 µM; in the experiment on IGROV1 ovarian it was 0.669 µM; in the experiment with LOX IMVI melanoma it was 0.513 µM; in the experiment on MALME-3M melanoma, 0.73 µM; in the experiment with NCI/ADR-RES ovarian, 0.778 µM; in the experiment on RXF 393 renal, 1.38 µM. The GI50 with SF-295 CNS was 0.622 µM; with SF-539 CNS, 1.48 µM; with U251 CNS, 0.336 µM; in the experiment on UACC-62 melanoma, 0.416 µM. Moreover, the TGI in the experiment with HS 578T breast came out at 13.6 µM; with IGROV1 ovarian, 13.4 µM; in the experiment with LOX IMVI melanoma, 2.29 µM; in the experiment with MALME-3M melanoma it was 4.77 µM; with NCI/ADR-RES ovarian, 9.66 µM; in the experiment with RXF 393 renal, 4.09 µM. Also, the TGI in the experiment with SF-295 CNS is 2.25 µM; in the experiment with SF-539 CNS it was 3.61 µM; in the experiment with U251 CNS, 1.36 µM; in the experiment on UACC-62 melanoma, 1.71 µM.

In the case of `Cc1cc(NCc2cc(Nc3ccnc4cc(Cl)ccc34)ccc2F)nc(N2CCN(C)CC2)n1`, the GI50 in the experiment on HS 578T breast is 1.87 µM; in the experiment on IGROV1 ovarian, 2.08 µM; in the experiment on LOX IMVI melanoma it was 1.26 µM; in the experiment on MALME-3M melanoma it was 1.84 µM; in the experiment with NCI/ADR-RES ovarian, 2.36 µM; in the experiment with RXF 393 renal it was 1.26 µM. Also, the GI50 in the experiment with SF-295 CNS was 1.09 µM; with SF-539 CNS, 1.79 µM; in the experiment on U251 CNS, 1.78 µM; in the experiment on UACC-62 melanoma, 1.91 µM. The TGI with HS 578T breast stood at 5.21 µM; in the experiment with IGROV1 ovarian, 5.76 µM; in the experiment with LOX IMVI melanoma, 2.65 µM; in the experiment on MALME-3M melanoma, 3.66 µM; with NCI/ADR-RES ovarian, 7.72 µM; with RXF 393 renal, 2.94 µM. In addition, the TGI in the experiment on SF-295 CNS was 2.55 µM; with SF-539 CNS it was 3.37 µM; in the experiment with U251 CNS, 4.46 µM; with UACC-62 melanoma, 3.81 µM.

As to `Cc1cc(=O)[nH]c2cc3c(c4c(n3Cc3ccc(Cl)cc3Cl)CC(C)(C)CC4=O)c(O)c12`, the GI50 in the experiment on HS 578T breast is 49.2 µM; in the experiment with IGROV1 ovarian, above 100 µM; with LOX IMVI melanoma, above 100 µM; in the experiment with MALME-3M melanoma, 29.9 µM; with NCI/ADR-RES ovarian, above 100 µM; with RXF 393 renal, above 100 µM. For the same compound, the GI50 with SF-295 CNS is 16.4 µM; in the experiment on SF-539 CNS, above 100 µM; in the experiment with U251 CNS it was 62.6 µM; in the experiment with UACC-62 melanoma, above 100 µM. The TGI in the experiment on HS 578T breast is above 100 µM; with IGROV1 ovarian, above 100 µM; in the experiment with LOX IMVI melanoma it was above 100 µM; in the experiment with MALME-3M melanoma it was 75.9 µM; in the experiment on NCI/ADR-RES ovarian, above 100 µM; in the experiment on RXF 393 renal, above 100 µM. Further, the TGI with SF-295 CNS was 63.5 µM; in the experiment with SF-539 CNS, above 100 µM; in the experiment with U251 CNS, above 100 µM; with UACC-62 melanoma it was above 100 µM.

`O=C1C=CC[C@H](/C=C/c2ccccc2)O1`: the GI50 in the experiment with HS 578T breast is 3.15 µM; in the experiment with IGROV1 ovarian it was 5.44 µM; in the experiment with LOX IMVI melanoma, 1.7 µM; in the experiment on MALME-3M melanoma, 18.5 µM; in the experiment on NCI/ADR-RES ovarian it was 3.12 µM; with RXF 393 renal it was 5.23 µM. Moreover, the GI50 is 2.54 µM in the experiment with SF-295 CNS, 0.813 µM with SF-539 CNS, 1.88 µM in the experiment on U251 CNS and 4.84 µM in the experiment on UACC-62 melanoma. In addition, the TGI with HS 578T breast is 30.4 µM; in the experiment with IGROV1 ovarian it was 26.5 µM; in the experiment with LOX IMVI melanoma it was 7.93 µM; in the experiment with MALME-3M melanoma, above 100 µM; in the experiment on NCI/ADR-RES ovarian, above 23.2 µM; in the experiment on RXF 393 renal, above 100 µM. Also, the TGI is above 40.9 µM in the experiment with SF-295 CNS, 8.24 µM in the experiment with SF-539 CNS, 13.1 µM in the experiment with U251 CNS and 19 µM with UACC-62 melanoma.
